In assay [1] the target is T1, RXRγ (UniProt P28705).
T1 sequence (P28705 1-463): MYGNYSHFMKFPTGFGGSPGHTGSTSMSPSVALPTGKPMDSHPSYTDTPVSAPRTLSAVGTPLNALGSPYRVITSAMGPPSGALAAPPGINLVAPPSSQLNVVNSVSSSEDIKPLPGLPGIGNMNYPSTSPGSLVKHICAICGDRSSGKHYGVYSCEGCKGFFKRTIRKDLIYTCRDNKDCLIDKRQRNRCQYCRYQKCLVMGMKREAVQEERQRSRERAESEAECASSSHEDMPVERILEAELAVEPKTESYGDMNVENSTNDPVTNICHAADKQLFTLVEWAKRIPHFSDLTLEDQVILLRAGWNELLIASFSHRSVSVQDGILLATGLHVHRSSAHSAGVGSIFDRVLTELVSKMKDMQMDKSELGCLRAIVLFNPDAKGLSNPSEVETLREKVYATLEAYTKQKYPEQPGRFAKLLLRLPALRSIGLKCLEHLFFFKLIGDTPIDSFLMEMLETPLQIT
As to the kind of experiment: holoreceptor transactivation assay, RXRγ. The following applies: NA = Not Active, read-out: RXR Trans. EC50 (nM) γ. Format: cell-based.
From the text: (§2) The results obtained in this assay are expressed in EC50 numbers, as they are also in the chimeric receptor transactivation assay.

Assay [2] addresses T2, RXRβ (UniProt P28704).
T2 sequence (P28704 1-520): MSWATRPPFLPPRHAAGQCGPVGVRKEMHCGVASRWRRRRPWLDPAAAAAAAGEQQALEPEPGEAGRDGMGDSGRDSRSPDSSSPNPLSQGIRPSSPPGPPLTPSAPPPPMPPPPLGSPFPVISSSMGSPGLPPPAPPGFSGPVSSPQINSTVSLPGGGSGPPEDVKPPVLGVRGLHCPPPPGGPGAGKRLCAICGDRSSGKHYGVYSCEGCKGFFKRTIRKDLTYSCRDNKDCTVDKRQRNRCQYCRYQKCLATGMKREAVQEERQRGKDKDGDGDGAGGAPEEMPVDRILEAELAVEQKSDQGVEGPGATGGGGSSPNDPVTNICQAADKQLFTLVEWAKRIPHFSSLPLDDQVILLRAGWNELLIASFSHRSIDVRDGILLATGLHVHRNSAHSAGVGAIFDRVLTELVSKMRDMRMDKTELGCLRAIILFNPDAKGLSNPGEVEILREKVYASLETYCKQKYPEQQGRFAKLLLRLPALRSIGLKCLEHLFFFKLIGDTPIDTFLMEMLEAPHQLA
As to the kind of experiment: ligand binding assay, RXRβ. The following applies: read-out: RXR Bind Ki (nM) β.
From the text: (§3) The results obtained in this assay are expressed in EC50 numbers, as they are also in the chimeric receptor transactivation assay. The results of ligand binding assay are expressed in Kd numbers.
(§4) Particularly, the transactivation data pertaining to RAR receptors were obtained in the chimeric assay, and the data pertaining to transactivation of RXR receptors were obtained in the holoreceptor transactivation assay.

Assay [3] deals with T1, RXRγ. As to the kind of experiment: ligand binding assay, RXRγ. The following applies: read-out: RXR Bind Ki (nM) γ.
From the text: as §3, §4
Assay [4] has as its target T2, RXRβ. The assay can be described thus: holoreceptor transactivation assay, RXRβ. In kind it is cell-based. The following applies: NA = Not Active, read-out: RXR Trans. EC50 (nM) β.
From the text: as §2
A further assay addresses RARβ (Homo sapiens, UniProt P10826). As to the kind of experiment: chimeric receptor transactivation assay, RARβ. In kind it is cell-based. The following applies: NA = Not Active, read-out: RAR Trans. EC50 (nM) β. An excerpt:
(§1) The specification of U.S. Pat. No. 5,455,265 is hereby expressly incorporated by reference.

The next assay addresses RARγ (Homo sapiens, UniProt P13631). The assay can be described thus: chimeric receptor transactivation assay, RARγ. Format: cell-based. The following applies: NA = Not Active, read-out: RAR Trans. EC50 (nM) γ.
From the text: as §1

This is an account of results in US7026487B2, “Amines substituted with a dihydronaphthalenyl, chromenyl, or thiochromenyl group, a pyridyl group and an alkyl group, having retinoid-like biological activity” (Allergan, Inc., priority 2000, dated 2006).

Each structure is given as a SMILES string.

RARβ, sequence (P19793 whole entry): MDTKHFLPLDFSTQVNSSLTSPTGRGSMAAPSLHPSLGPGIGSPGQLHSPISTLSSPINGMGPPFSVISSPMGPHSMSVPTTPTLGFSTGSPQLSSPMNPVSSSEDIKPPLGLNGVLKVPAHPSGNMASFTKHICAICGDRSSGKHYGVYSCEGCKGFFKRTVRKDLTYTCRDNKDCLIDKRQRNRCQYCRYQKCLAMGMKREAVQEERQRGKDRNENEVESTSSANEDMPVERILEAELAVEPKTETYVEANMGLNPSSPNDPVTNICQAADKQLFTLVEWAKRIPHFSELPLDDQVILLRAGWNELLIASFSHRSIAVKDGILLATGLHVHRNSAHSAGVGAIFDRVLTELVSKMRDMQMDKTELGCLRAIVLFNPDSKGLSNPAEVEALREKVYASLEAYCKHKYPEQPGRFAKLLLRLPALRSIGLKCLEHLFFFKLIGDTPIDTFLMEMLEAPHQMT
RARβ, sequence (P10826 154-455): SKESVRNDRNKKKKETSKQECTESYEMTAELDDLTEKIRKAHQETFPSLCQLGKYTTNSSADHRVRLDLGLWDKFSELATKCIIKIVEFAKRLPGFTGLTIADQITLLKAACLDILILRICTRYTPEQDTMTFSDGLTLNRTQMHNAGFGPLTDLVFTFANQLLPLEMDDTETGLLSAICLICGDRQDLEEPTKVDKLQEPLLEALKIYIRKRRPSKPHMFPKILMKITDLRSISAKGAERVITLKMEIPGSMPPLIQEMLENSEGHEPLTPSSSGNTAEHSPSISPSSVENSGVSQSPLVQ
RARγ, sequence (P13631 whole entry): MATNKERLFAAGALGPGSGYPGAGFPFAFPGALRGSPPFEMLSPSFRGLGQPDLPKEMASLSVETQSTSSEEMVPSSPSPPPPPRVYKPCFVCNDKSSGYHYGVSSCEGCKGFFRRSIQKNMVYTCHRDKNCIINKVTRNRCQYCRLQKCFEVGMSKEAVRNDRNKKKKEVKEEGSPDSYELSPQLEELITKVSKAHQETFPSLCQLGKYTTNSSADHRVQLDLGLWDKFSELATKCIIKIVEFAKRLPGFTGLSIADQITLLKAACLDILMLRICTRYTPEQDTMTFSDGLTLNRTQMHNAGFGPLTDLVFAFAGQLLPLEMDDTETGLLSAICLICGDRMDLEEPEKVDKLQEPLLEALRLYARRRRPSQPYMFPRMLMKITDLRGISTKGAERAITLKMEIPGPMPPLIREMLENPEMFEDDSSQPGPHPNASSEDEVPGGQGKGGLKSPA
RARγ, sequence (P19793 whole entry, further chain): as the sequence (P19793 whole entry) above

In the case of `CC1=CCC(C)(C)c2cc(N(C)c3ccc(C(=O)O)cc3)c(C)cc21` [Compound 44, 4-[Methyl(3,5,8,8-tetramethyl-7,8-dihydronaphthalen-2-yl)amino]benzoic acid], the concentration for a half-maximal effect (EC50) at RXRγ [1] was over 1000 nM. For the same compound, the Ki at RXRβ [2] and on RXRγ [3] was over 1000 nM in each case.
In the case of `CCN(c1ccc(C(=O)O)cc1)c1cc2c(cc1C)C(C)=CCC2(C)C` [Compound 45, 4-[Ethyl(3,5,8,8-tetramethyl-7,8-dihydronaphthalen-2-yl)amino]benzoic acid], the EC50 on RXRγ [1] was over 1000 nM. Moreover, the inhibitory constant (Ki) on RXRβ [2] and at RXRγ [3] was over 1000 nM in each case.
`CCCN(c1ccc(C(=O)O)cc1)c1cc2c(cc1C)C(C)=CCC2(C)C` [Compound 46, 4-[n-Propyl(3,5,8,8-tetramethyl-7,8-dihydronaphthalen-2-yl)amino]benzoic acid]: the concentration for a half-maximal effect (EC50) at RXRβ [4] was over 1000 nM. For the same compound, the inhibition constant Ki on RXRβ [2] and at RXRγ [3] was over 10000 nM throughout.
Turning to `CC1=CCC(C)(C)c2cc(N(CC3CC3)c3ccc(C(=O)O)cc3)c(C)cc21` [Compound 47, 4-[Cyclopropylmethyl(3,5,8,8-tetramethyl-7,8-dihydronaphthalen-2-yl)amino]benzoic acid], the inhibition constant (Ki) on RXRβ [2] is over 1000 nM.
Consider `Cc1cc2c(cc1N(C)c1ccc(C(=O)O)cc1)C(C)(C)CC=C2C(C)C` [Compound 52, 4-[Methyl-(5-isopropyl-3,8,8-trimethyl-7,8-dihydronaphthalen-2-yl)amino]benzoic acid], for which the half-maximal effective concentration (EC50) on RXRβ [4] is over 1000 nM.
Take `CCN(c1ccc(C(=O)O)cc1)c1cc2c(cc1C)C(C(C)C)=CCC2(C)C` [Compound 53]: the concentration for a half-maximal effect (EC50) on RXRβ [4] was over 1000 nM. Besides, the inhibitory constant (Ki) on RXRβ [2] is over 1000 nM.
On to `CCCN(c1ccc(C(=O)O)cc1)c1cc2c(cc1C)C(C(C)C)=CCC2(C)C` [Compound 54, 4-[n-Propyl-(5-isopropyl-3,8,8-trimethyl-7,8-dihydronaphthalen-2-yl)lamino]benzoic acid], for which the EC50 at RXRβ [4] is over 1000 nM. Also, the inhibitory constant (Ki) on RXRβ [2] was over 1000 nM.
Regarding `CC1=CCC(C)(C)c2cc(N(C)c3ccc(C(=O)O)cc3)ccc21` [Compound 67, 4-[Methyl-(5,8,8-trimethyl-7,8-dihydro-naphthalen-2-yl)-amino]-benzoic acid], on RXRβ [2], the inhibition constant (Ki) was over 1000 nM.
In the case of `C=CCN(c1ccc(C(=O)O)cc1)c1ccc2c(c1)C(C(C)(C)C)=CCC2(C)C` [Compound 90, 4-[(8-t-Butyl-5,5-dimethyl-5,6-dihydronaphthalen-2-yl)(prop-2-en-yl)lamino]-benzoic acid], the EC50 at RARβ and at RARγ was over 1000 nM in each case.
Turning to `CCCCCCOc1cc2c(cc1N(CCC)c1ccc(C(=O)O)cc1)C(C)=CCC2(C)C` [Compound 145, 4-[(3-n-Hexyloxy-5,5,8-trimethyl-5,6-dihydronaphthalen-2-yl)-n-propylamino]benzoic acid], on RXRγ [1], the 50% effective concentration (EC50) was over 1000 nM.
Turning to `CCCN(c1ccc(C(=O)O)cc1)c1cc2c(cc1OCc1ccccc1)C(C)(C)CC=C2C(C)C` [Compound 157], the 50% effective concentration (EC50) on RARβ is over 1000 nM.

In general, EC50 refers to the concentration that produces a half-maximal response. The Ki is a dissociation constant, usually derived from enzyme kinetics or from competition with a known ligand.
